Assay results from PubChem BioAssay (NCI).
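Each compound was tested at five concentrations against cells in 96-well plates for 48 hours. The concentration for full growth arrest is given as TGI.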

Key:
Experiment in all cases: inhibition of tumour cell growth, NCI panel, 48 h
[1] = system: 786-0 renal
[2] = system: A498 renal
[3] = system: A549 NSCLC
[4] = system: ACHN renal
[5] = system: CCRF-CEM leukemia
[6] = system: COLO 205 colon
[7] = system: DLD-1 colon
[8] = system: DMS 114 small cell lung
[9] = system: DMS 273 small cell lung
[10] = system: EKVX NSCLC
[11] = system: HCC-2998 colon
[12] = system: HCT-116 colon
[13] = system: HCT-15 colon
[14] = system: HL-60(TB) leukemia
[15] = system: HOP-18 NSCLC
[16] = system: HOP-62 NSCLC
[17] = system: HT29 colon
[18] = system: IGROV1 ovarian
[19] = system: K-562 leukemia
[20] = system: KM12 colon
[21] = system: KM20L2 colon
[22] = system: LOX IMVI melanoma
[23] = system: LXFL 529 NSCLC
[24] = system: M14 melanoma
[25] = system: M19-MEL melanoma
[26] = system: MALME-3M melanoma
[27] = system: MOLT-4 leukemia
[28] = system: NCI-H226 lung
[29] = system: NCI-H23 lung
[30] = system: NCI-H460 lung
[31] = system: NCI-H522 lung
[32] = system: OVCAR-3 ovarian
[33] = system: OVCAR-5 ovarian
[34] = system: OVCAR-8 ovarian
[35] = system: RXF 393 renal
[36] = system: SF-268 CNS
[37] = system: SF-539 CNS
[38] = system: SK-MEL-2 melanoma
[39] = system: SK-MEL-28 melanoma
[40] = system: SK-MEL-5 melanoma
[41] = system: SK-OV-3 ovarian
[42] = system: SN12C renal
[43] = system: SNB-19 CNS
[44] = system: SNB-75 CNS
[45] = system: SNB-78 CNS
[46] = system: SR leukemia
[47] = system: SW-620 colon
[48] = system: TK-10 renal
[49] = system: U251 CNS
[50] = system: UACC-257 melanoma
[51] = system: UACC-62 melanoma
[52] = system: UO-31 renal
[53] = system: BT-549 breast
[54] = system: CAKI-1 renal
[55] = system: DU-145 prostate
[56] = system: HOP-92 NSCLC
[57] = system: HS 578T breast
[58] = system: MCF7 breast
[59] = system: MDA-MB-231 breast
[60] = system: MDA-MB-435
[61] = system: MDA-N
[62] = system: NCI/ADR-RES ovarian
[63] = system: OVCAR-4 ovarian
[64] = system: PC-3 prostate
[65] = system: RPMI-8226 leukemia
[66] = system: SF-295 CNS
[67] = system: T-47D breast
[68] = system: XF 498 CNS

CC1CC2=C(C(=O)O1)C(c1ccccc1)Nc1ccccc1N2 (stereo not given)
TGI [1]: > 100 µM | TGI [2]: > 100 µM | TGI [3]: > 100 µM | TGI [4]: > 100 µM | TGI [5]: > 100 µM | TGI [6]: > 100 µM | TGI [7]: > 100 µM | TGI [8]: > 100 µM | TGI [9]: > 100 µM | TGI [10]: > 100 µM | TGI [11]: > 100 µM | TGI [12]: > 100 µM | TGI [13]: > 100 µM | TGI [14]: > 100 µM | TGI [15]: > 100 µM | TGI [16]: > 100 µM | TGI [17]: > 100 µM | TGI [18]: > 100 µM | TGI [19]: > 100 µM | TGI [20]: > 100 µM | TGI [21]: > 100 µM | TGI [22]: > 100 µM | TGI [23]: > 100 µM | TGI [24]: > 100 µM | TGI [25]: > 100 µM | TGI [26]: > 100 µM | TGI [27]: > 100 µM | TGI [28]: > 100 µM | TGI [29]: > 100 µM | TGI [30]: > 100 µM | TGI [31]: > 100 µM | TGI [32]: > 100 µM | TGI [33]: > 100 µM | TGI [34]: > 100 µM | TGI [35]: > 100 µM | TGI [36]: > 100 µM | TGI [37]: > 100 µM | TGI [38]: > 100 µM | TGI [39]: > 100 µM | TGI [40]: > 100 µM | TGI [41]: > 100 µM | TGI [42]: > 100 µM | TGI [43]: > 100 µM | TGI [44]: > 100 µM | TGI [45]: > 100 µM | TGI [46]: > 100 µM | TGI [47]: > 100 µM | TGI [48]: > 100 µM | TGI [49]: > 100 µM | TGI [50]: > 100 µM | TGI [51]: > 100 µM | TGI [52]: > 100 µM

COc1nc(NC2OC(COC(C)=O)C(OC(C)=O)C(OC(C)=O)C2OC(C)=O)c(N=CC=Nc2c(NC3OC(COC(C)=O)C(OC(C)=O)C(OC(C)=O)C3OC(C)=O)nc(OC)n(C)c2=O)c(=O)n1C (stereo not given)
TGI [1]: > 100 µM | TGI [2]: > 100 µM | TGI [3]: > 100 µM | TGI [4]: > 100 µM | TGI [53]: > 100 µM | TGI [54]: > 100 µM | TGI [5]: > 100 µM | TGI [6]: > 100 µM | TGI [7]: > 100 µM | TGI [8]: > 100 µM | TGI [55]: > 100 µM | TGI [10]: > 100 µM | TGI [11]: > 100 µM | TGI [12]: > 100 µM | TGI [13]: > 100 µM | TGI [14]: > 100 µM | TGI [15]: > 100 µM | TGI [16]: > 86.6 µM | TGI [56]: > 93.1 µM | TGI [57]: 90.2 µM | TGI [17]: > 100 µM | TGI [18]: > 100 µM | TGI [19]: > 100 µM | TGI [20]: > 100 µM | TGI [21]: > 100 µM | TGI [22]: > 100 µM | TGI [23]: > 100 µM | TGI [24]: > 100 µM | TGI [25]: > 100 µM | TGI [26]: > 100 µM | TGI [58]: > 100 µM | TGI [59]: > 100 µM | TGI [60]: > 100 µM | TGI [61]: > 100 µM | TGI [27]: > 100 µM | TGI [28]: > 100 µM | TGI [29]: > 100 µM | TGI [30]: > 100 µM | TGI [31]: > 100 µM | TGI [62]: > 100 µM | TGI [32]: > 100 µM | TGI [63]: > 100 µM | TGI [33]: > 100 µM | TGI [34]: > 100 µM | TGI [64]: > 100 µM | TGI [65]: > 100 µM | TGI [35]: > 100 µM | TGI [36]: > 100 µM | TGI [66]: > 100 µM | TGI [37]: > 100 µM | TGI [38]: > 100 µM | TGI [39]: > 100 µM | TGI [40]: > 100 µM | TGI [41]: > 100 µM | TGI [42]: > 100 µM | TGI [43]: > 100 µM | TGI [44]: 48.2 µM | TGI [46]: > 100 µM | TGI [47]: > 100 µM | TGI [67]: > 100 µM | TGI [48]: > 100 µM | TGI [49]: > 100 µM | TGI [50]: > 100 µM | TGI [51]: > 100 µM | TGI [52]: > 100 µM | TGI [68]: 81.9 µM

CCc1cccc(C(C)C)c1NC(=O)C(=O)C1C(=O)NC(=O)NC1=O
TGI [1]: > 100 µM | TGI [2]: > 100 µM | TGI [3]: > 100 µM | TGI [4]: > 100 µM | TGI [54]: > 100 µM | TGI [5]: > 100 µM | TGI [6]: > 100 µM | TGI [7]: > 100 µM | TGI [8]: > 100 µM | TGI [10]: > 100 µM | TGI [11]: > 100 µM | TGI [12]: > 100 µM | TGI [13]: > 100 µM | TGI [14]: > 100 µM | TGI [15]: > 100 µM | TGI [16]: > 100 µM | TGI [56]: > 100 µM | TGI [17]: > 100 µM | TGI [18]: > 100 µM | TGI [19]: > 100 µM | TGI [20]: > 100 µM | TGI [21]: > 100 µM | TGI [22]: > 100 µM | TGI [23]: > 100 µM | TGI [24]: > 100 µM | TGI [25]: > 100 µM | TGI [26]: > 100 µM | TGI [28]: > 100 µM | TGI [29]: > 100 µM | TGI [30]: > 100 µM | TGI [31]: > 100 µM | TGI [32]: > 100 µM | TGI [63]: > 100 µM | TGI [33]: > 100 µM | TGI [34]: > 100 µM | TGI [65]: > 100 µM | TGI [35]: > 100 µM | TGI [36]: > 100 µM | TGI [66]: > 100 µM | TGI [37]: > 100 µM | TGI [39]: > 100 µM | TGI [40]: > 100 µM | TGI [41]: > 100 µM | TGI [42]: > 100 µM | TGI [43]: > 100 µM | TGI [44]: > 100 µM | TGI [46]: > 100 µM | TGI [47]: > 100 µM | TGI [48]: > 100 µM | TGI [49]: > 100 µM | TGI [50]: > 100 µM | TGI [51]: > 100 µM | TGI [52]: > 100 µM | TGI [68]: > 100 µM

Cc1[nH]c2c(C)cccc2c1C1Cc2ccccc2N1 (stereo not given)
TGI [1]: 46.9 µM | TGI [2]: 87.7 µM | TGI [3]: 62.2 µM | TGI [4]: 74.9 µM | TGI [5]: 74.1 µM | TGI [6]: 32.3 µM | TGI [7]: 79.8 µM | TGI [8]: 45.2 µM | TGI [10]: 35.9 µM | TGI [12]: 30.9 µM | TGI [13]: 49.2 µM | TGI [14]: 43 µM | TGI [15]: 35.2 µM | TGI [16]: 32.3 µM | TGI [56]: 0.0966 µM | TGI [17]: 35.3 µM | TGI [18]: 36.7 µM | TGI [19]: 67 µM | TGI [20]: 32.4 µM | TGI [21]: 31.4 µM | TGI [22]: 31 µM | TGI [23]: 36.4 µM | TGI [24]: 29.6 µM | TGI [25]: 46.1 µM | TGI [26]: 41.7 µM | TGI [27]: 48.3 µM | TGI [28]: 57.1 µM | TGI [29]: 39.8 µM | TGI [30]: 51.7 µM | TGI [31]: 41.2 µM | TGI [32]: 33 µM | TGI [33]: 41.3 µM | TGI [34]: 40.2 µM | TGI [65]: 74.6 µM | TGI [35]: 23.1 µM | TGI [36]: 48.2 µM | TGI [66]: 41 µM | TGI [37]: 33.7 µM | TGI [38]: 54.3 µM | TGI [39]: 36.7 µM | TGI [40]: 33.4 µM | TGI [41]: > 100 µM | TGI [42]: 41 µM | TGI [43]: 69.8 µM | TGI [44]: > 100 µM | TGI [46]: 66.7 µM | TGI [47]: 56.4 µM | TGI [48]: 62.2 µM | TGI [49]: 41.4 µM | TGI [50]: 42.7 µM | TGI [51]: 32.8 µM | TGI [52]: 65.7 µM | TGI [68]: 38.4 µM
